How the values were obtained:
Assay type in all cases: toxicity, cell-based
U2OS = assay: Incucyte cell viability with U2OS; details: human, 10 µM, compound concentration 10 uM
HEK-293T = assay: Incucyte cell viability with HEK293T; details: human, 10 µM, compound concentration 10 uM
Fibroblast = assay: Incucyte cell viability with human fibroblast; details: 10 µM, compound concentration 10 uM
Also: unitless GR value; below 1 slowed growth and below 0 cell loss.

Structure (SMILES)	Growth Rate (U2OS; 6 h, replicate number 1)	Growth Rate (U2OS; 6 h, replicate number 2)	Growth Rate (U2OS; 12 h, replicate number 1)	Growth Rate (U2OS; 12 h, replicate number 2)	Growth Rate (U2OS; 18 h, replicate number 1)	Growth Rate (U2OS; 18 h, replicate number 2)	Growth Rate (U2OS; 24 h, replicate number 1)	Growth Rate (U2OS; 24 h, replicate number 2)	Growth Rate (Fibroblast; 0 h, replicate number 1)	Growth Rate (Fibroblast; 6 h, replicate number 2)	Growth Rate (Fibroblast; 12 h, replicate number 2)	Growth Rate (HEK-293T; 6 h, replicate number 1)	Growth Rate (HEK-293T; 12 h, replicate number 1)	Growth Rate (HEK-293T; 12 h, replicate number 2)	Growth Rate (HEK-293T; 18 h, replicate number 1)	Growth Rate (HEK-293T; 18 h, replicate number 2)	Growth Rate (HEK-293T; 24 h, replicate number 1)	Growth Rate (HEK-293T; 24 h, replicate number 2)	Growth Rate (Fibroblast; 6 h, replicate number 1)	Growth Rate (Fibroblast; 24 h, replicate number 2)	also measured
C[C@@H]1OCC2(CCN(c3cnc(Sc4ccnc(N)c4Cl)c(N)n3)CC2)[C@@H]1N [BATOPROTAFIB]	0.3	0.99	0.53	0.78	0.78	0.91	0.69	0.99	-1	-0.69	0.8										Growth Rate (U2OS; 0 h, replicate number 1): 0.89; Growth Rate (HEK-293T; 0 h, replicate number 1): 0.52; Growth Rate (HEK-293T; 0 h, replicate number 2): -0.24; Growth Rate (Fibroblast; 0 h, replicate number 2): 0.47
C=C(F)C(=O)N1CCN(c2nc(OC[C@@H]3CCCN3C)nc3c2CCN(c2cccc4cccc(Cl)c24)C3)C[C@@H]1CC#N [ADAGRASIB]	-0.94	0.32	-0.94	-0.11	-0.89	-0.27	-0.76	-0.3	-1	-0.86	-0.18	-0.26	-0.28	-0.57	-0.25	-0.46	-0.21	-0.38	-0.47	-0.22	Growth Rate (U2OS; 0 h, replicate number 1): -1; Growth Rate (U2OS; 0 h, replicate number 2): -0.94; Growth Rate (HEK-293T; 6 h, replicate number 2): -0.86; Growth Rate (Fibroblast; 12 h, replicate number 1): -0.27; Growth Rate (Fibroblast; 18 h, replicate number 1): -0.26; Growth Rate (Fibroblast; 18 h, replicate number 2): -0.27; Growth Rate (Fibroblast; 24 h, replicate number 1): -0.3
Cc1c(CN2CCC3(CC2)CN(c2ncnc4sc(CC(F)(F)F)cc24)C3)ccc2c1cc(C#N)n2CC(N)=O	1						0.94		-1	-0.88	-0.34	0.58	0.59	0.34	0.63	0.44	0.69	0.47	-0.45	0.09	Growth Rate (U2OS; 0 h, replicate number 2): 0.3; Growth Rate (HEK-293T; 6 h, replicate number 2): -0.05; Growth Rate (Fibroblast; 12 h, replicate number 1): -0.4; Growth Rate (Fibroblast; 18 h, replicate number 1): -0.16; Growth Rate (Fibroblast; 18 h, replicate number 2): -0.22; Growth Rate (Fibroblast; 24 h, replicate number 1): -0.05
CCN1CCN(Cc2ccc(NC(=O)Nc3ccc(Oc4cc(NC)ncn4)cc3)cc2C(F)(F)F)CC1 [AST-487]				0.86	0.36	0.41	0.19	0.08	0.93					-0.4		-0.29		-0.21	-1	0.4	Growth Rate (U2OS; 0 h, replicate number 2): -0.84; Growth Rate (HEK-293T; 0 h, replicate number 1): -0.91; Growth Rate (HEK-293T; 6 h, replicate number 2): -0.54; Growth Rate (Fibroblast; 18 h, replicate number 2): 0.81
O=c1c(Br)ccc2n1C[C@@H]1CNC[C@H]2C1		0.92							0.52			0.59	0.4		0.61		0.89		-0.94	0.89	Growth Rate (Fibroblast; 0 h, replicate number 2): -0.26
CCS(=O)(=O)Nc1cccc(Oc2cc(F)cc(Nc3ccc(I)cc3F)c2NS(=O)(=O)C2CC2)c1	0.85		0.89	0.78	0.91	1	0.78		-1	-0.17		0.37	0.34	0.42	0.6	0.5	0.61	0.48	0.24		Growth Rate (HEK-293T; 6 h, replicate number 2): -0.1; Growth Rate (Fibroblast; 0 h, replicate number 2): 0.69
CN(C)C/C=C/C(=O)Nc1cccc(S(=O)(=O)N2CCC(NC(=O)c3n[nH]cc3NC(=O)c3c(Cl)cc(Cl)cc3Cl)CC2)c1		0.35	0.1	-0.3	-0.42	-0.38	-0.51	-0.42		0.98	0.45	-0.58	-0.49	-0.7	-0.34	-0.61	-0.05	-0.34		-0.13	Growth Rate (HEK-293T; 6 h, replicate number 2): -0.85; Growth Rate (Fibroblast; 12 h, replicate number 1): 0.8; Growth Rate (Fibroblast; 18 h, replicate number 1): 0.26; Growth Rate (Fibroblast; 18 h, replicate number 2): 0.09; Growth Rate (Fibroblast; 24 h, replicate number 1): 0.12
COc1cc(-c2cc3ncccc3c(OC[C@H]3CNC(=O)C3)n2)cc(OC)c1OC1CCOCC1.O=C(O)C(F)(F)F		0.88	0.72	0.93	0.76	0.85	0.68	0.75	0.4	0.67	0.78	0.2	0.17	0.16	0.25	0.34	0.33	0.49	0.72	0.94	Growth Rate (U2OS; 0 h, replicate number 1): -0.63; Growth Rate (HEK-293T; 0 h, replicate number 2): 0.5; Growth Rate (HEK-293T; 6 h, replicate number 2): -0.14; Growth Rate (Fibroblast; 18 h, replicate number 1): 1; Growth Rate (Fibroblast; 18 h, replicate number 2): 0.92
Cc1cc(Nc2cc(N)ncn2)c(=O)n2c1C(=O)NC21CCCCC1 [TOMIVOSERTIB]		0.49	0.96		0.93	0.92	0.88	0.85		-0.8		0.32							0.58		Growth Rate (U2OS; 0 h, replicate number 1): 0.95; Growth Rate (U2OS; 0 h, replicate number 2): 0.6; Growth Rate (HEK-293T; 0 h, replicate number 2): 0.56; Growth Rate (Fibroblast; 0 h, replicate number 2): -1; Growth Rate (Fibroblast; 12 h, replicate number 1): -1
CSc1ccc(C[C@@H](C)C(=O)O)cc1Nc1nc(N2CC[C@H](N(C)C)C2)cc(C(F)F)c1C#N.O=C(O)C(F)(F)F	0.8								-1		0.34	0.25	0.39	0.58	0.43	0.51	0.48	0.58	-0.12	0.79	Growth Rate (Fibroblast; 12 h, replicate number 1): 0.16; Growth Rate (Fibroblast; 18 h, replicate number 1): 0.21; Growth Rate (Fibroblast; 18 h, replicate number 2): 0.8; Growth Rate (Fibroblast; 24 h, replicate number 1): 0.3
NC(=O)c1ccc(-c2nc(-c3ccc4c(c3)OCO4)c(-c3ccccn3)[nH]2)cc1.O	0.96		0.79		0.95	0.79	0.94		-0.21	-0.54									-0.01		Growth Rate (U2OS; 0 h, replicate number 1): -0.57; Growth Rate (U2OS; 0 h, replicate number 2): -0.09; Growth Rate (HEK-293T; 0 h, replicate number 1): 0.76; Growth Rate (Fibroblast; 18 h, replicate number 1): -0.48

Source: ChEMBL document CHEMBL5303304, “EUbOPEN Chemogenomics Library - IncuCyte” (2023)
